Results on seven compounds are retold here after patent US12702135B2, “Mitigation of ammonia, odor and greenhouse gases” (Syddansk Universitet, priority 2019, dated 2026).

One series concerns Klebsiella pneumoniae. The series can be described thus: pH-based urease activity assay, pure K. pneumoniae culture in M9U minimal medium. The conditions noted are these: for Reduction in ureolytic activity: pure K. pneumonia culture. It is filed as cell-based, Klebsiella pneumoniae subsp. pneumoniae. As for the experimental part:
(§1) The urease stock was stored at −20° C.
All M9U components except glucose, urea, FeCl2, ZnSO4, and vitamins were mixed, the pH adjusted to 6.8 and the medium was autoclaved. Glucose, urea, FeCl2, ZnSO4, and BME Vitamin solution were sterile-filtered and added aseptically after autoclaving. Urea was added within 24 h before the medium was used.
(§2) The assay consists of a buffered urea solution containing the pH indicator phenol red and the inhibitor to be tested. […] Each compound was screened at three concentrations (10×, 100× and 1000× dilutions of the stock) in triplicate against K. pneumoniae and purified JBU. To this solution ureolytic bacteria or urease is added and the solution is incubated in a plate reader which every 15 minutes measure the absorbance at 557 nm and 630 nm (A557 and A630). Thus, inhibitor and bacteria/urease was not pre-incubated. For microbial urease activity experiments, K. pneumoniae and E. coli were grown overnight in the respective growth media. […] To each well 80 μl bacterial suspension, 100 μl growth media, and 20 μl inhibitor solution was added. Increase in absorbance at 557 nm reflects increasing pH (until saturation of the indicator at pH 8.2) and increase in absorbance at 630 nm reflects bacterial growth (optical density). In the case of ureolytic bacteria or enzymes in urea solution the increase in pH can be ascribed to the production of alkaline NH3. […] In the bacterial assay inhibitors were evaluated based on three parameters: maximal or final pH increase, onset of pH increase and rate of pH increase. The relative maximal pH increase was determined as pHmax=A557-A630. The onset of the pH increase was defined as the point where the ureolytic production of NH3 overcame the buffer capacity resulting in a colour change of the phenol red indicator measured as an absorbance increase at 557 nm. […] For each inhibitor the influence on the bacterial growth was also evaluated by identifying the end of the lag phase (onset of exponential growth), the growth rate and the maximal OD630.

For series [1], the system named is pig manure slurry. The series can be described thus: headspace ammonia emissions from pig manure slurry (PTR-MS). The conditions noted are these: Tannic acid 10 mM; cumulated headspace emission, 22-24° C. Here is the method:
Ammonia emissions were measured in headspace experiments at ambient temperature (22-24° C.). Pig urine (30 ml) and 10 g of frozen pig feces were thawed and added to each of nine 100 mL reactors and mixed with tannic acid and sodium fluoride in different concentrations. Tannic acid and sodium fluoride was purchased from Sigma-Aldrich. A flow of 0.5 L±10% air/min was continuously applied to the headspace of each reactor with mass flow controllers (Bronkhorst EL-FLOW, Ruurlo, Netherlands). The air flow carried the emitted ammonia from the pig manure slurry in the reactors to a proton transfer reaction mass spectrometer (PTR-MS) (Ionicon Analytik, Innsbruck, Austria) for quantification. A PEEK valve (Bio-Chem Valve Inc., Boonton, NJ, USA) was used to switch between the nine reactors every 12 min. The PTR-MS was operated at a reduced electric field of 142 Townsend (2.15 mbar and 75° C. in the drift tube). Every 24 h, 3 ml of pig urine and 1 g of pig feces was thawed and supplemented to the reactors. Tannic acid and sodium fluoride was also supplemented every 24 h to maintain a constant inhibitor concentration in the manure. For acidification treatment, the manure slurry was acidified with H2SO4 to pH 5.5 every 24 h. The gas emissions were monitored continuously for 12 days. […]

For series [2] the following is noted: weak acidity due to the numerous phenol groups; cited from earlier work.
A further series concerns the target T1, jack bean urease (Canavalia ensiformis, UniProt P07374).
T1 construct: purchased Sigma-Aldrich
The series can be described thus: cell-free urease activity assay (pH-based). The format is biochemical. Here is the method: as §1, §2
In urease inhibition assays 5 μl enzyme solution, 175 μl growth media, and 20 μl inhibitor solution were added.

Series [3] concerns pig manure slurry. In words: total ammoniacal nitrogen (Kjeldahl) in fresh pig manure slurry. Here is the method: Total ammoniacal nitrogen (TAN) was measured in pig manure slurry using the Kjeldahl method. This method consists of adding 32% NaOH to the manure slurry sample in order to turn all NH4^+ in the sample to NH3. The sample is then heated in a closed system causing the NH3 to evaporate into a trap containing H3BO3 forming NH4[B(OH)4]. The remaining acid is then back-titrated with dilute HCl to give the concentration.
(§3) The pig manure slurry was made fresh on the day of measurement by mixing 10 g of feces with 30 ml of urine. Vials of approximately 4.5 ml of manure slurry were prepared. To each vial 0.5 ml of appropriate amounts of inhibitors were added. Controls were vials of 4.5 ml manure slurry with 0.5 ml H2O. After mixing inhibitors and pig manure slurry the vials were sealed and incubated at 25° C. with shaking for 5 h. After incubation, the ureolysis reaction was rapidly quenched by addition of 8 ml 32% NaOH before the sample was transferred to the Kjeldahl instrument for measurements.
Total ammoniacal nitrogen (TAN) was measured in pig manure slurry using the Kjeldahl method. This method consists of adding 32% NaOH to the manure sample in order to turn all NH4^+ in the sample to NH3. The sample is then heated in a closed system causing the NH3 to evaporate into a trap containing H3BO3 forming NH4[B(OH)4]. The remaining acid is then back-titrated with dilute HCl to give the concentration.
as §3, with “of either 30 mM TA and 10 mM NaF or 50 mM TA and 10 mM NaF was added. Vials containing 0.5 ml” for “of appropriate amounts”, “of either 51 mg/ml MTA (equal to 30 mM TA on a mass basis) or 85 mg/ml MTA (equal to 50 mM TA on a mass basis) with 10 mM TA and 10 mM NaF” for “of inhibitors”, “were also prepared.” for “were added.”, “ml H2O or 10 mM NaF.” for “ml H2O.”
The pig manure slurry was made fresh on the day of measurement by mixing 10 g of feces with 30 ml of urine. Manure separation was simulated by mixing 10 g of feces with 60 ml of urine for a ratio of 1:6 w:V.
For the “normal” ratio or unseparated manure slurry (1:3) 4.5 ml manure was placed in vials. Then 0.5 ml of TA (50 mM) and NaF (10 mM) were added to the manure slurry. For the separated manure slurry (1:6) 4.5 ml were mixed with 0.5 ml of TA (25 mM) and NaF (10 mM).
Controls were vials of 4.5 ml manure slurry with 0.5 ml H2O at either 1:3 or 1:6 w:V ratios of feces:urine. After mixing inhibitors and pig manure slurry the vials were sealed and incubated at 25° C. with shaking for 5 h. After incubation, the ureolysis reaction was rapidly quenched by addition of 8 ml 32% NaOH before the sample was transferred to the Kjeldahl instrument for measurements.
Tannic acid (TA), sodium fluoride (NaF), chlorogenic acid (CA), lignosulfonic acid (LA), lignin (L), chitosan low molecular weight (CLMW), NaOH, HCl and H3BO3 were purchased from Sigma-Aldrich. The mixed tannins (75% tannins) used in this study (VINOFERM TANNOROUGE) were purchased from Brouwland. The product contains tannins from chestnut. The green tea extract was purchased from Slimming Labs (Groeningen, Netherlands) and consists of 90% polyphenols of which 40% are epigallocatechin gallate. Total ammoniacal nitrogen (TAN) was measured in pig manure slurry using the Kjeldahl method as described in example 2 and example 7. The various compounds were tested as described for MTA in example 7 using appropriate concentrations.
Initial screenings were done in duplicate and the results are given as the average of the two measurements with no standard deviation (SD). […]

Series [4] has as its system 12 days old pig manure slurry. The series can be described thus: methane production in anaerobic inoculum flasks (GC-FID). The conditions noted are these: 10 mM TA alone, 3 weeks. As for the experimental part:
This was done by transferring the TA-NaF treated manure slurry used in example 3 to 100 mL inoculum flasks on day 12. The manure slurry was weighed before inoculation and the headspace was flushed with helium (Linde Group) prior to encapsulation. Gas from the headspace of the inoculum flasks was sampled into 6 mL vacuum sealed exetainer vials (Labco Limited, Lampeter, UK) every week the following three weeks and stored for later CH4 analysis on a GC-FID. After sampling from the inoculum flasks, the pressure in the headspace was equalized with a needle.

Several values for one entry are separate records, joined by “and”; a condition that tells them apart may be missing. Identical values can stand only once.

T1 sequence (P07374 whole entry, looked up): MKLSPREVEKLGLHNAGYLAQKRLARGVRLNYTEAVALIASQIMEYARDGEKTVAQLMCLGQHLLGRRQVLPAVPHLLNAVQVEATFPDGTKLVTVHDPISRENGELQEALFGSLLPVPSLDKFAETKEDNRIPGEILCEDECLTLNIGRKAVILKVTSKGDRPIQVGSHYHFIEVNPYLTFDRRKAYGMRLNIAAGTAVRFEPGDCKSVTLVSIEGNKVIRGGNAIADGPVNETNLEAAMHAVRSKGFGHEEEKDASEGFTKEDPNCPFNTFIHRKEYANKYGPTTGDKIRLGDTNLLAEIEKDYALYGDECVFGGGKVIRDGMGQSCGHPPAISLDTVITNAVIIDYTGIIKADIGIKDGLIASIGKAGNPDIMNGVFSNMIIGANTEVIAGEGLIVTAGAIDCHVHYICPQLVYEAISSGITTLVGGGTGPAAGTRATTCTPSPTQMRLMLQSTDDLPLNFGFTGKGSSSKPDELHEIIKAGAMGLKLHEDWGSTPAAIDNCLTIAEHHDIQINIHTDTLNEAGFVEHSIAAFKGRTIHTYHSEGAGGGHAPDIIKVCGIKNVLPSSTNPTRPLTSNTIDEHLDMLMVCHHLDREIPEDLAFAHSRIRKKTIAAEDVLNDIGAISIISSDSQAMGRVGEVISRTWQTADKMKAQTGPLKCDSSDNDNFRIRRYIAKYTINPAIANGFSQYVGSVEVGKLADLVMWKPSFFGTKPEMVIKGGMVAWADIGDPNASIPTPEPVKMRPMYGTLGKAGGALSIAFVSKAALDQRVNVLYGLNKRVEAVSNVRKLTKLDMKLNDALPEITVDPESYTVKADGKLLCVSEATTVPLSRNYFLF

As for `O=C(OC[C@H]1O[C@@H](OC(=O)c2cc(O)c(O)c(OC(=O)c3cc(O)c(O)c(O)c3)c2)[C@H](OC(=O)c2cc(O)c(O)c(OC(=O)c3cc(O)c(O)c(O)c3)c2)[C@@H](OC(=O)c2cc(O)c(O)c(OC(=O)c3cc(O)c(O)c(O)c3)c2)[C@@H]1OC(=O)c1cc(O)c(O)c(OC(=O)c2cc(O)c(O)c(O)c2)c1)c1cc(O)c(O)c(OC(=O)c2cc(O)c(O)c(O)c2)c1` [Tannic acid, tannic acid], the inhibition at 1000 µM in the series with Klebsiella pneumoniae (Klebsiella pneumoniae, 1.0 mM, read-out: reduction of ureolytic activity (pH change) relative to uninhibited control) worked out at 21.3 ± 1.3%. The “Reduction in ureolytic activity” value in the series with Klebsiella pneumoniae (TA 0.05 mM, listed as TA) is 16% and 16 ± 5%; in the series with Klebsiella pneumoniae (TA 0.1 mM) it was 9.4 ± 3%; with Klebsiella pneumoniae (TA 0.2 mM), 3.9 ± 6%. Further, the “inhibition of ureolytic activity” value in the series with Klebsiella pneumoniae (tannic acid 0-0.8 mM alone) is 0-12%. Further, the “ureolytic pH change compared to the uninhibited control (FIG. 5)” value with Klebsiella pneumoniae (tannic acid alone up to 0.8 mM) is given as “does not reduce the pH change significantly”. Besides, the “Reduction in ammonia emissions, 12 days” value with pig manure slurry [1] was 88.4%. Also, the pKa result in series [2] is “around 6”. Also, the “pH change (reduced to)” value at jack bean urease (0.1 mM) was found to be 0. The “Reduction in ammonia production (Mean)” value in the series with pig manure slurry [3] (TA 3 mM, pig manure slurry (Example 11)) is listed as 0 ± 4%; with pig manure slurry [3] (TA 5 mM, pig manure slurry (Example 11)) it was 18 ± 1.3%. The “Reduction in ammonia production (Mean ± SD)” value (shortened to “Reduction … (Mean ± SD)”) in the series on pig manure slurry [3] (TA 5 mM (8.5 mg/ml), pig manure slurry (Example 10)) came out at 18 ± 1.3%. For the same compound, the “Reduction in ammonia production” value with pig manure slurry [3] (Tannic acid 10 mM, pig manure slurry, 25° C., 5 h (Example 2)) came to 17.6%^; in the series on pig manure slurry [3] (in solution, Tannic acid 5 mM, pig manure slurry, 25° C., 5 h (Example 3)) it was 17.6%; with pig manure slurry [3] (in solution, Tannic acid 10 mM, pig manure slurry, 25° C., 5 h (Example 3)) it was 35.2%. Further, the “methane production, % of the uninhibited control (FIG. 3B)” value in series [4] came to 0.01%.
For `[F-].[Na+]` [NaF, sodium fluoride], the inhibition of ureolysis in the series with Klebsiella pneumoniae (0.3 mM fluoride alone) was 14.7%. Also, the “ureolytic activity (pH change) relative to the uninhibited control” value in the series on Klebsiella pneumoniae (1.0 mM) is given as 0. In addition, the “reduction of pH change (FIG. 5)” value in the series with Klebsiella pneumoniae (NaF 0.3 mM) is on record as 12-15%. In addition, on jack bean urease (1.0 mM), the “reduction in initial rate of pH change” value was 89.4±1.0% and the “reduction of pH change” value is on record as 80.6±3.0%. Besides, in the series with pig manure slurry [3] (1 mM NaF, pig manure slurry, 25° C., 5 h (Example 7)), the “Reduction in concentration of NH3” value was determined as 17.7 ± 4%. Also, the “Reduction … (Mean ± SD)” value in the series on pig manure slurry [3] (NaF 1 mM, pig manure slurry (Example 10)) came out at 9 ± 1.0%. For the same compound, the “Reduction in ammonia production (Mean)” value in the series with pig manure slurry [3] (NaF 1 mM, pig manure slurry (Example 11)) is 9 ± 1.0%. Further, in the series on pig manure slurry [3] (NaF 1 mM, pig manure slurry, 25° C., 5 h (Example 2)), the “Reduction in ammonia production” value was determined as 24%. Also, in the series with pig manure slurry [3] (in solution, NaF 1 mM, pig manure slurry, 25° C., 5 h (Example 3)), the “Reduction in ammonia production” value is reported as 8.6%.
Take `O=C1C=CC(=O)N1c1ccccc1` [N-phenylmaleimide]: in the series with pig manure slurry [3] (N-phenylmaleimide 3.9 mM, pig manure slurry, 25° C., 5 h), the “Reduction in ammonia production” value was found to be 59%.
`O=C(/C=C/c1ccc(O)c(O)c1)O[C@@H]1C[C@](O)(C(=O)O)C[C@@H](O)[C@H]1O` [CA, chlorogenic acid]: the “Reduction … (Mean ± SD)” value with pig manure slurry [3] (CA 5 mM (2.3 mg/ml), pig manure slurry, duplicate, no SD) stood at 6%.
For the compound `NCCS` [Cysteamine], in the series with pig manure slurry [3] (Cysteamine 1 mM, pig manure slurry, 25° C., 5 h), the “Reduction in ammonia production” value came to 25%.
Regarding `CC(=O)NO` [AHA, acetohydroxamic acid], the “Reduction in ureolytic activity” value in the series with Klebsiella pneumoniae (AHA 0.2 mM) turned out to be 14 ± 6%. For the same compound, the “Reduction in ammonia production (Mean)” value is 14% and 14 ± 2.3% in the series on pig manure slurry [3] (AHA 0.5 mM, pig manure slurry); 24 ± 3.4% with pig manure slurry [3] (AHA 1 mM, pig manure slurry).
As for `O=C(O)CNCC(=O)O` [Iminodiacetic acid], in the series with pig manure slurry [3] (Iminodiacetic acid 0.8 mM, pig manure slurry, 25° C., 5 h), the “Reduction in ammonia production” value is 19%.
